From ChEMBL document CHEMBL1201862, “PubChem BioAssay data set” (2004) come the findings set out here.

Some test systems named below: 786-0; CAKI-1; DLD-1; DMS-273; EKVX; HCC 2998; HL-60; HT-29; Hs-578T; KM-20L2; M14; MDA-MB-231; Malme-3M; OVCAR-3; OVCAR-4; RPMI-8226; SK-MEL-5; SNB-75; U-251; UACC-257.
Assay in all cases: NCI-60 cell line screen, 48 h

Structures are written as SMILES.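 Values below derive from 48-hour exposures of cells grown in 96-well plates, with endpoints linearly interpolated between the two concentrations bracketing the appropriate inhibition level. GI50: concentration for 50% inhibition of growth.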 Activity calls are given as the source filed them. No stated cut-off is given here; in the data, active = GI50 up to about 1.1 µM and inactive = higher.

Regarding `COC1C(N)C(OC2C(Oc3cccc4c(O)c5c(=O)oc6ccc(C)c7c(=O)oc(c34)c5c67)OC(C)C(O)C2(C)O)OC(C)C1O` (stereo not given), the GI50 in the test with 786-0 is < 12.3 nM (active); in the test on CAKI-1, 15.9 nM (active); in the test on DLD-1, 20.6 nM (active); in the test with DMS-273, < 10 nM (active); in the test with EKVX it was 156 nM (active); in the test with HCC 2998 it was 110 nM (active). In addition, the GI50 with HL-60 is 41.6 nM (active); with HT-29, < 16.8 nM (active); in the test with Hs-578T, < 10 nM (active); in the test with KM-20L2, 56.8 nM (active); with M14, 78.9 nM (active); in the test with MDA-MB-231, 109 nM (active). Further, the GI50 in the test with Malme-3M was < 10.7 nM (active); in the test on OVCAR-3, 108 nM (active); in the test on OVCAR-4, 405 nM (active); in the test on RPMI-8226, < 10 nM (active); with SK-MEL-5, 31 nM (active); with SNB-75, 31.3 nM (active). Also, the GI50 in the test on U-251 is < 10 nM (active); in the test with UACC-257, 65.8 nM (active).

Take `Cn1c(=O)nc2n(-c3ccc(Cl)cc3)c3cc(Cl)ccc3nc-2c1=O`: the GI50 was 10500 nM (inactive) in the test with 786-0; 10900 nM (inactive) in the test on CAKI-1; 1790 nM (inactive) in the test on DLD-1; 3560 nM (inactive) with DMS-273; 8850 nM (inactive) in the test with EKVX; 4490 nM (inactive) with HCC 2998. Besides, the GI50 with HL-60 was 2060 nM (inactive); in the test with HT-29, 2620 nM (inactive); in the test with Hs-578T, 2480 nM (inactive); with KM-20L2 it was 3440 nM (inactive); in the test with M14, 2070 nM (inactive); in the test with MDA-MB-231 it was 3170 nM (inactive). In addition, the GI50 in the test with Malme-3M is 1890 nM (inactive); in the test with OVCAR-3 it was 1950 nM (inactive); in the test on OVCAR-4, 1320 nM (inactive); in the test with RPMI-8226 it was 3790 nM (inactive); with SK-MEL-5 it was 1670 nM (inactive); with SNB-75, 7140 nM (inactive). Moreover, the GI50 is 17700 nM (inactive) in the test on U-251 and 1820 nM (inactive) in the test with UACC-257.
